The source of these data is US4273866A, “Ligand analog-irreversible enzyme inhibitor conjugates and methods for use” (priority 1979, dated 1981).

Molecules are shown by their SMILES.

For assay [1], the target named is T1, E. electricus acetylcholinesterase (Electrophorus electricus, UniProt O42275). Briefly: Specific modulation of Compound I inhibition by digoxin antibody and digoxin. In kind it is biochemical. How it is done:
(§1) A stock solution of Compound I (4.6×10^-3 molar in methanol) is diluted 200-fold with pH 7.0, 0.1 molar phosphate buffer containing 0.1% gelatin. Digoxin antibody is diluted in phosphate-gelatin buffers as indicated in Table I. Fifty microliters of phosphate-gelatin buffer, pH 7.0, containing the indicated concentration of antibody is placed in sample cups of a bichromatic spectrophotometer (model ABA-100® sold by Abbott Laboratories). To each of these 50 μl is added 1 μl of Compound I working solution making the final concentration 4.5×10^-7 molar. The antibody and Compound I (inhibitor) are allowed to incubate for 10-15 minutes at room temperature. Each sample receives 1 .parallel.l of working enzyme solution (9.5×10^-9 molar of E. electricus acetylcholinesterase in pH 7.0 phosphate-gelatin buffer). The final enzyme concentration is 1.9×10^-10 molar. The sample is diluted 1/26 with assay buffer containing acetylthiocholine, as substrate, 5×10^-4 molar and 5,5'-dithiobis-(2 -nitrobenzoic acid) (DTNB), 1.6×10^-4 molar in pH 7.0 phosphate-gelatin buffer. The change in absorbance with time is measured after 5 minutes in the bichromatic analyzer equipped with a 415/550 nm filter at 30° C. The results are as follows:
The above experiment is repeated except digoxin at a concentration of 2.5×10^-5 molar is added to the sample cups. […] Fifty microliters of phosphate-gelatin buffer is added to a sample cup. The buffer solution either contains 2.5×10^-5 molar digoxin or is a control. To the sample cup is added a final concentration of 9×10^-7 molar digoxin antibody and 4.5×10^-7 molar Compound I. These solutions are allowed to incubate for 15 minutes and then enzyme is added and assayed according to the previous procedure.

In assay [2] the target is T1, E. electricus acetylcholinesterase. The assay is described as follows: Residual enzyme activity with Compound I, antibody and digoxin in buffer. The class given is biochemical. The note with it: antibody 4.5×10^-7 molar, after 21 minutes. How it is done:
as §1
The above experiment is repeated except digoxin at a concentration of 2.5×10^-5 molar is added to the sample cups. […] Fifty microliters of phosphate-gelatin buffer is added to a sample cup. The buffer solution either contains 2.5×10^-5 molar digoxin or is a control. To the sample cup is added a final concentration of 9×10^-7 molar digoxin antibody and 4.5×10^-7 molar Compound I. These solutions are allowed to incubate for 15 minutes and then enzyme is added and assayed according to the previous procedure. The results are as follows:
Using the above procedures with the exception that the antibody final concentration in the sample is 4.5×10^-7 molar, various phosphate-gelatin buffer solutions are prepared with the indicated digoxin concentration. Each of these solutions are analyzed by adding antibody and Compound I to the solution as in the previous procedure, allowing a 2.5 minute incubation period to elapse and assaying for the residual enzyme activity after 21 minutes.

Assay [3] has the same target. Briefly: Antibody modulation of Compound I inhibitory activity (residual acetylcholinesterase activity). In kind it is biochemical. Particulars: Compound I 4.5 × 10^-7 M. How it is done:
as §1, with “C.” for “C. The results are as follows:”

The subject of a further assay is acetylcholinesterase. Briefly: Digoxin in serum assay with Compound I. In kind it is biochemical, E. electricus. How it is done:
as §1
Normal human serum containing digoxin concentrations listed in the table below are assayed by the procedure set out above.
N-Ethylmaleimide is used to block background sulfhydryl groups in human serum.
Thus, 1 μl of concentrated digoxin antibody in pH 7.0 phosphate-gelatin buffer containing 50 mM of N-methylorphenadrine is added to 50 μl of each serum standard then N-ethylmaleimide is added with mixing to each serum standard to make a working concentration of 1.6 mM. To the serum is also added 1 μl of a solution containing Compound I in pH 7.0, 0.1 molar phosphate-gelatin buffer. The final antibody concentration is 8.0×10^-7 molar and the final concentration of Compound I is 4.5×10^-7. These solutions are allowed to incubate for 12 minutes at which time acetylcholinesterase is added as before. After 26 minutes, the bichromatic spectrophotometer is started and a sample from each cup is diluted 26-fold with assay buffer containing 1.6×10^-5 molar DTNB, 5×10^-4 molar acetyl-β-methylthiocholine iodide, and 1 mM N-methyl-orphenadrine in pH 7.0, 0.1 molar phosphate-gelatin buffer. The final enzyme concentration is about 2×10^-11 molar and the cuvette temperature is 30° C. The change in absorbance after 5 minutes is as follows: […]

Assay [4] concerns human serum cholinesterase. Briefly: Inhibition of human serum cholinesterase. In kind it is biochemical. Particulars: 1 mM. The source says: (§2) N,N,N-Trimethyl-2-(o-methyl-α-phenylbenzyloxy) ethylammonium methylsulfate(N-methylorphenadrine) prepared by reacting N,N-dimethyl-2-(o-methyl-α-phenylbenzyloxy) ethylamine(orphenadrine)with dimethylsulfate.
The target of assay [5] is cholinesterase from E.electricus (Electrophorus electricus, UniProt O42275). Briefly: Inhibition of cholinesterase from E.electricus. The class given is biochemical. Particulars: 1 mM.
Source text: as §2

T1 sequence (O42275 24-633): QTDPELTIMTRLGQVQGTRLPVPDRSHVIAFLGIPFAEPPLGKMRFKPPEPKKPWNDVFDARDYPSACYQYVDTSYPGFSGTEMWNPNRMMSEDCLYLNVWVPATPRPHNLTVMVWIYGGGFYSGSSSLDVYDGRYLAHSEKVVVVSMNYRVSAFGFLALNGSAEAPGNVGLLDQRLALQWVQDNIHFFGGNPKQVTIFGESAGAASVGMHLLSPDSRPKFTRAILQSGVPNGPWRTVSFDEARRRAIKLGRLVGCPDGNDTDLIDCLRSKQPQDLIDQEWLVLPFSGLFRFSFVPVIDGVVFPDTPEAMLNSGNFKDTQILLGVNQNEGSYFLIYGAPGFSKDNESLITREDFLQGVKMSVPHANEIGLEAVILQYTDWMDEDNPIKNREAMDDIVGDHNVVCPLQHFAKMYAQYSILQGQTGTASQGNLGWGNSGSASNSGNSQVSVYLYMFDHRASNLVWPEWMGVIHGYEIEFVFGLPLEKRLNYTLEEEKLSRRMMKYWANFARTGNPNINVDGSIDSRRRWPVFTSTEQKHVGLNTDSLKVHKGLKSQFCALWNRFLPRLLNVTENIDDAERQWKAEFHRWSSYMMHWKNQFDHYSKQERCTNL
Chain of cholinesterase from E.electricus (O42275 24-633): as above

Consider `CCOP(=O)(OCCCCCNC(=O)CCCCCNC(=O)OC1CCC2(C)C(CCC3C2CC(O)C2(C)C(C4=CC(=O)OC4)CCC32O)C1)Oc1ccc2ccc[n+](C)c2c1` (stereo not shown) [Compound I], for which the “Ad/5 min. after enzyme-inhibitor incubation time” value is 0.160 Ad/5 min in assay [1] (Enzyme + Compound I + Antibody (9×10^-7 molar), 0.3'); 0.129 Ad/5 min in assay [1] (Enzyme + Compound I + Antibody (9×10^-7 molar), 11'); 0.115 Ad/5 min in assay [1] (Enzyme + Compound I + Antibody (9×10^-7 molar), 19'); 0.160 Ad/5 min in assay [1] (Enzyme + Compound I + Antibody + Digoxin (2.5×10^-5 molar), 0.3'); 0.068 Ad/5 min in assay [1] (Enzyme + Compound I + Antibody + Digoxin (2.5×10^-5 molar), 11'); 0.038 Ad/5 min in assay [1] (Enzyme + Compound I + Antibody + Digoxin (2.5×10^-5 molar), 19'). The “Ad/5 min. after enzyme-inhibitor incubation time” value in assay [1] (Enzyme + Compound I, 0.3' (enzyme only 0.174)) worked out at 0.162 Ad/5 min; in assay [1] (Enzyme + Compound I, 11' (enzyme only 0.169)), 0.037 Ad/5 min; in assay [1] (Enzyme + Compound I, 19' (enzyme only 0.167)), 0.013 Ad/5 min. Also, the “% Activity of Enzyme” value in assay [2] (digoxin 0.062 μM) amounted to 65%; in assay [2] (digoxin 0.125 μM), 65%; in assay [2] (digoxin 0.25 μM) it was 62%; in assay [2] (digoxin 0.5 μM), 57%; in assay [2] (digoxin 1.0 μM), 36%. Further, the “change in absorbance with time” value turned out to be 0.161 Ad/5 min in assay [3] (antibody 9 × 10^-7 M, enzyme 1.9 × 10^-10 M, 10' incubation); 0.137 Ad/5 min in assay [3] (antibody 9 × 10^-7 M, enzyme 1.9 × 10^-10 M, 21' incubation); 0.107 Ad/5 min in assay [3] (antibody 9 × 10^-7 M, enzyme 1.9 × 10^-10 M, 43' incubation); 0.089 Ad/5 min in assay [3] (antibody 9 × 10^-8 M, enzyme 1.9 × 10^-10 M, 10' incubation); 0.027 Ad/5 min in assay [3] (antibody 9 × 10^-8 M, enzyme 1.9 × 10^-10 M, 21' incubation); 0.005 Ad/5 min in assay [3] (antibody 9 × 10^-8 M, enzyme 1.9 × 10^-10 M, 43' incubation). Moreover, the “change in absorbance with time” value was found to be 0.045 Ad/5 min in assay [3] (no antibody, enzyme 1.9 × 10^-10 M (enzyme alone 0.220), 10' incubation); 0.015 Ad/5 min in assay [3] (no antibody, enzyme 1.9 × 10^-10 M (enzyme alone 0.221), 21' incubation); 0.003 Ad/5 min in assay [3] (no antibody, enzyme 1.9 × 10^-10 M (enzyme alone 0.222), 43' incubation). For the same compound, the “change in absorbance after 5 minutes” value in the assay on acetylcholinesterase (digoxin in serum 0.1 μM, antibody 8.0×10^-7 molar, Compound I 4.5×10^-7) was determined as 0.096 Ad/5 Min; in the assay with acetylcholinesterase (digoxin in serum 0.13 μM), 0.089 Ad/5 Min; in the assay on acetylcholinesterase (digoxin in serum 0.17 μM), 0.083 Ad/5 Min; in the assay on acetylcholinesterase (digoxin in serum 0.26 μM), 0.077 Ad/5 Min; with acetylcholinesterase (digoxin in serum 0.34 μM), 0.073 Ad/5 Min; in the assay with acetylcholinesterase (digoxin in serum 0.51 μM) it was 0.063 Ad/5 Min. The figures for the “change in absorbance after 5 minutes” value with acetylcholinesterase (digoxin in serum 0.64 μM), with acetylcholinesterase (digoxin in serum 0.85 μM) and in the assay with acetylcholinesterase (digoxin in serum 1.30 μM) were 0.060 Ad/5 Min, 0.047 Ad/5 Min and 0.035 Ad/5 Min, respectively.

For orientation: inhibition means the relative decrease from the control value, in per cent. With `Cc1ccccc1C(OCC[N+](C)(C)C)c1ccccc1` (stereo not drawn) [N-methylorphenadrine, N,N,N-Trimethyl-2-(o-methyl-α-phenylbenzyloxy) ethylammonium methylsulfate], in assay [4], the “inhibition of human serum cholinesterase” value is “greater than 99%”. For the same compound, the inhibition at 1000 µM in assay [5] is 25%.
